One test relates to A375. Briefly: A375_P-ERK / A375 cell activity. In kind it is cell-based. The settings on record: Homo sapiens, A-375; A375 cells (A375_P-ERK). The protocol: (§1) Compounds are assessed in a variety of cell based assays. For example human cell lines with B-Raf V600E mutation (A375 melanoma, SKMEL3 melanoma, and COLO205 colon adenocarcinoma), as well as tumorigenic cell lines with wild-type B-RAF (SW620 colon adenocarcinoma) or with Ras mutations (SKMEL2 melanoma and IPC298 melanoma). Similar assays may be used to assess additional tumorigenic cell lines with Ras mutations, including, but not limited to, M202, M207, M243, M244, M296, S117, HCT116, HCT15, DLD1, MiaPaCa, A549, NCI-H23, NCI-H460, HOP62, MDA-MB231, Hs-578T, HL60, MOLT-4, and CCRF-CEM.
(§2) On day 1, cells are counted, then centrifuged in a conical tube for 5 minutes at 1000 rpm. The supernatant is removed and cells are re-suspended as follows: • SW620 (ATCC catalog #CCL-27): resuspend in Leibovitz's L-15 medium, 2 mM L-glutamine, 10% fetal bovine serum to 6×10^4 cells/mL. • A375 (ATCC catalog #CRL-1619): resuspend in Dulbecco's modified Eagle's medium, 4 mM L-glutamine, 4.5 g/L D-glucose, 10% fetal bovine serum to 6×10^4 cells/mL. • COLO205 (ATCC catalog #CCL-222): resuspend in RPMI 1640, 2 mM L-glutamine, 1.5 g/L sodium bicarbonate, 4.5 g/L D-glucose, 10 mM HEPES, 1.0 mM sodium pyruvate, 10% fetal bovine serum to 6×10^4 cells/mL. • SKMEL2 (ATCC catalog #HTB-68): resuspend in Minimum Eagle essential medium, 2 mM L-glutamine, 1.5 g/L sodium bicarbonate, 0.1 mM non-essential amino acids, 1.0 mM sodium pyruvate, 10% fetal bovine serum to 6×10^4 cells/mL. • SKMEL3 (ATCC catalog #HTB-69): resuspend in McCoy's 5A medium, 1.5 mM L-glutamine, 15% fetal bovine serum to 6×10^4 cells/mL. • IPC298 (DSMZ catalog #ACC 251): resuspend in RPMI 1640, 2 mM L-glutamine, 10% fetal bovine serum to 6×10^4 cells/mL.
(§3) The cells are plated, 50 μL in each well of a 96-well dish (Corning 3610) and incubated at 37° C. in 5% CO2 overnight, cells plated to a final concentration of cells as follows: • SW620: 5,000 cells per well. • A375: 2,000 cells per well. • COLO205: 2,000 cells per well. • SKMEL2: 2,000 cells per well. • SKMEL3: 3,000 cells per well. • IPC298: 2,000 cells per well.
(§4) On day 2, compound at a maximum concentration of 5 mM is serially diluted 1:3 (e.g. 10 μL with 30 μL dimethyl sulfoxide) for a total of 8 point titration with DMSO as a control. A 1 μL aliquot of each dilution point and control is added to 249 μL growth media and 50 μL is added to a well containing cells, providing 10 μM compound at the maximum concentration point. The cells are incubated for 3 days at 37° C. in 5% CO2.
(§5) On day 5, ATPlite 1 step Luminescence Assay System (Perkin Elmer #6016739) is brought to room temperature along with the cell cultures. ATPlite is added 25 μL to each well, shake for 2 minutes, and the cells are incubated at room temperature for 10 minutes, then luminescence is read on Satire reader. The measured luminescence correlates directly with cell number, such that the reading as a function of compound concentration is used to determine the IC50 value.

A further test has as its system COLO205. Briefly: COLO205 cell growth inhibitory activity (ATPlite). The test is classed as cell-based. The settings on record: Homo sapiens, COLO 205, 72 h; COLO205 cells, growth inhibition, 3 days. The protocol:
as §1, §2, §3, §4, §5

In the case of `N#Cc1ncc(-c2cnc3[nH]cc(C(=O)c4cccc(NS(=O)(=O)N5CCCC5)c4F)c3c2)cn1` [Compound P-0091, N-[3-[5-(2-cyanopyrimidin-5-yl)-1H-pyrrolo[2,3-b]pyridine-3-carbonyl]-2-fluoro-phenyl]pyrrolidine-1-sulfonamide], the half-inhibitory concentration (IC50) with A375 and in the test with COLO205 was below 1 µM throughout.
On to `CN(C)S(=O)(=O)Nc1cccc(C(=O)c2c[nH]c3ncc(-c4cnc(C#N)nc4)cc23)c1F` [Compound P-0096, 5-(2-cyanopyrimidin-5-yl)-3-[3-(dimethylsulfamoylamino)-2-fluoro-benzoyl]-1H-pyrrolo[2,3-b]pyridine], for which the IC50 in the test on A375 and with COLO205 was below 1 µM each time.
On to `CN(C)S(=O)(=O)Nc1cccc(C(=O)c2c[nH]c3ncc(-c4ccc(C(C)(C)O)cc4)cc23)c1F` [Compound P-0103, 3-[3-(dimethylsulfamoylamino)-2-fluoro-benzoyl]-5-[4-(1-hydroxy-1-methyl-ethyl)phenyl]-1H-pyrrolo[2,3-b]pyridine], for which the IC50 with A375 and with COLO205 was below 1 µM throughout.
Consider `CC(C)(O)c1ccc(-c2cnc3[nH]cc(C(=O)c4cccc(NS(=O)(=O)N5CCCC5)c4F)c3c2)cc1` [Compound P-0105, N-[2-fluoro-3-[5-[4-(1-hydroxy-1-methyl-ethyl)phenyl]-1H-pyrrolo[2,3-b]pyridine-3-carbonyl]phenyl]pyrrolidine-1-sulfonamide], for which the IC50 in the test on A375 and in the test with COLO205 was below 1 µM in each case.
Take `CCN(C)S(=O)(=O)Nc1cccc(C(=O)c2c[nH]c3ncc(-c4cnc(N5CCCC5)nc4)cc23)c1F` [Compound P-0108, 3-[3-[[ethyl(methyl)sulfamoyl]amino]-2-fluoro-benzoyl]-5-(2-pyrrolidin-1-ylpyrimidin-5-yl)-1H-pyrrolo[2,3-b]pyridine]: the concentration for half-maximal inhibition (IC50) with A375 is below 1 µM; in the test with COLO205, above 1 µM.
For the compound `O=C(c1cccc(NS(=O)(=O)N2CCCC2)c1F)c1c[nH]c2ncc(-c3cnc(NC4CC4)nc3)cc12` [Compound P-0232, N-[3-[5-[2-(cyclopropylamino)pyrimidin-5-yl]-1H-pyrrolo[2,3-b]pyridine-3-carbonyl]-2-fluoro-phenyl]pyrrolidine-1-sulfonamide], the IC50 with A375 and with COLO205 was below 1 µM in each case.
As for `CCOc1cnc(-c2cnc3[nH]cc(C(=O)c4c(F)ccc(NS(=O)(=O)N(C)C)c4F)c3c2)cn1` [Compound P-0244, 3-[3-(dimethylsulfamoylamino)-2,6-difluoro-benzoyl]-5-(5-ethoxypyrazin-2-yl)-1H-pyrrolo[2,3-b]pyridine], the half-maximal inhibitory concentration (IC50) with A375 and in the test on COLO205 was above 1 µM throughout.
For `CN(C)S(=O)(=O)Nc1cccc(C(=O)c2c[nH]c3ncc(-c4ccc(C(C)(C)C#N)cc4)cc23)c1F` [Compound P-0245, 5-[4-(1-cyano-1-methyl-ethyl)phenyl]-3-[3-(dimethylsulfamoylamino)-2-fluoro-benzoyl]-1H-pyrrolo[2,3-b]pyridine], the IC50 in the test with A375 and with COLO205 was below 1 µM throughout.
Regarding `COC(=O)C1(c2ccc(-c3cnc4[nH]cc(C(=O)c5cccc(NS(=O)(=O)N6CCCC6)c5F)c4c3)cc2)CC1` [Compound P-0254, methyl 1-[4-[3-[2-fluoro-3-(pyrrolidin-1-ylsulfonylamino)benzoyl]-1H-pyrrolo[2,3-b]pyridin-5-yl]phenyl]cyclopropanecarboxylate], the half-maximal inhibitory concentration (IC50) in the test with A375 and with COLO205 was below 1 µM each time.
In the case of `CN(C)S(=O)(=O)Nc1ccc(F)c(C(=O)c2c[nH]c3ncc(-c4ccc(C(C)(C)C#N)cc4)cc23)c1F` [Compound P-0255], the IC50 with A375 and with COLO205 was below 1 µM throughout.
For the compound `CCN(C)S(=O)(=O)Nc1ccc(F)c(C(=O)c2c[nH]c3ncc(-c4cnc(N5CCN(C(=O)OC(C)(C)C)CC5)nc4)cc23)c1F` [Compound P-0264, tert-butyl 4-[5-[3-[3-[[ethyl(methyl)sulfamoyl]amino]-2,6-difluoro-benzoyl]-1H-pyrrolo[2,3-b]pyridin-5-yl]pyrimidin-2-yl]piperazine-1-carboxylate], the half-maximal inhibitory concentration (IC50) in the test on A375 and in the test on COLO205 was below 1 µM throughout.
In the case of `O=C(c1c(F)ccc(NS(=O)(=O)N2CCCC2)c1F)c1c[nH]c2ncc(-c3cnc(N4CCOCC4)nc3)cc12` [Compound P-0266, N-[2,4-difluoro-3-[5-(2-morpholinopyrimidin-5-yl)-1H-pyrrolo[2,3-b]pyridine-3-carbonyl]phenyl]pyrrolidine-1-sulfonamide], the IC50 in the test with A375 and with COLO205 was below 1 µM in each case.
As to `COc1ncc(-c2cnc3[nH]cc(C(=O)c4c(F)ccc(NS(=O)(=O)N5CCCC5)c4F)c3c2)s1` [Compound P-0270, N-[2,4-difluoro-3-[5-(2-methoxythiazol-5-yl)-1H-pyrrolo[2,3-b]pyridine-3-carbonyl]phenyl]pyrrolidine-1-sulfonamide], the IC50 in the test on A375 and with COLO205 was below 1 µM each time.
For `O=C(c1c(F)ccc(NS(=O)(=O)N2CCCC2)c1F)c1c[nH]c2ncc(-c3ccnc(OC4CCC4)c3)cc12` [Compound P-0286, N-[3-[5-[2-(cyclobutoxy)-4-pyridyl]-1H-pyrrolo[2,3-b]pyridine-3-carbonyl]-2,4-difluoro-phenyl]pyrrolidine-1-sulfonamide], the IC50 in the test on A375 is above 1 µM; with COLO205, below 1 µM.
In the case of `O=C(c1c(F)ccc(NS(=O)(=O)N2CCC(F)(F)C2)c1F)c1c[nH]c2ncc(-c3cnc(C4CC4)nc3)cc12` [Compound P-0288, N-[3-[5-(2-cyclopropylpyrimidin-5-yl)-1H-pyrrolo[2,3-b]pyridine-3-carbonyl]-2,4-difluoro-phenyl]-3,3-difluoro-pyrrolidine-1-sulfonamide], the IC50 in the test with A375 and in the test with COLO205 was below 1 µM throughout.
Turning to `O=C(c1c(F)ccc(NS(=O)(=O)N2CCCC2)c1F)c1c[nH]c2ncc(-c3cc(C(F)(F)F)ncn3)cc12` [Compound P-0294, N-[2,4-difluoro-3-[5-[6-(trifluoromethyl)pyrimidin-4-yl]-1H-pyrrolo[2,3-b]pyridine-3-carbonyl]phenyl]pyrrolidine-1-sulfonamide], the 50% inhibitory concentration (IC50) in the test on A375 and in the test on COLO205 was above 1 µM in each case.
On to `CCN(C)S(=O)(=O)Nc1ccc(F)c(C(=O)c2c[nH]c3ncc(-c4ccc(C#N)cc4)cc23)c1F` [Compound P-0300, 5-(4-cyanophenyl)-3-[3-[[ethyl(methyl)sulfamoyl]amino]-2,6-difluoro-benzoyl]-1H-pyrrolo[2,3-b]pyridine], for which the concentration for half-maximal inhibition (IC50) is below 1 µM with A375 and above 1 µM in the test on COLO205.
On the same counts, the results for `CCN(C)S(=O)(=O)Nc1ccc(F)c(C(=O)c2c[nH]c3ncc(-c4cccc(N(C)C)c4)cc23)c1F` [Compound P-0302, 5-[3-(dimethylamino)phenyl]-3-[3-[[ethyl(methyl)sulfamoyl]amino]-2,6-difluoro-benzoyl]-1H-pyrrolo[2,3-b]pyridine] are below 1 µM and below 1 µM.
On the same counts, the results for `CCN(C)S(=O)(=O)Nc1ccc(F)c(C(=O)c2c[nH]c3ncc(-c4ccc(C(=O)NC5CC5)nc4)cc23)c1F` [Compound P-0312, N-cyclopropyl-5-[3-[3-[[ethyl(methyl)sulfamoyl]amino]-2,6-difluoro-benzoyl]-1H-pyrrolo[2,3-b]pyridin-5-yl]pyridine-2-carboxamide] are below 1 µM and below 1 µM.
The matching figures for `CN1CCN(c2cc(-c3cnc4[nH]cc(C(=O)c5c(F)ccc(NS(=O)(=O)N6CCCC6)c5F)c4c3)ncn2)CC1` [Compound P-0319, N-[2,4-difluoro-3-[5-[6-(4-methylpiperazin-1-yl)pyrimidin-4-yl]-1H-pyrrolo[2,3-b]pyridine-3-carbonyl]phenyl]pyrrolidine-1-sulfonamide]: below 1 µM and below 1 µM.

Source of the values: patent US9624213B2 (Plexxikon Inc., priority 2011, dated 2017).
